Measurements published in patent US20250051851A1, “NOVEL BIOMARKER FOR DETECTION OF CANCER METASTASIS” (INDUSTRY-ACADEMIC COOPERATION FOUNDATION, YONSEI UNIVERSITY, priority 2021, published 2025).

Tested on: IKZF1 and IKZF3
Experiment: In vivo experiment using IKZF inhibitor: counting circulating tumor cells in melanoma mouse model
Conditions: melanoma mouse model (B16F10 cells injected into paw pad); injection of the drug; FIG. 12

Nc1cccc2c1C(=O)N(C1CCC(=O)NC1=O)C2=O (stereo not shown) [pomalidomide]
number of circulating tumor cells: decreased
